The record followed here is patent US11571423B2, “Small molecule modulators of human sting” (Curadev Pharma Limited, priority 2017, dated 2023).

The target in experiment [1] is hSTING(R232) (Homo sapiens, UniProt Q86WV6, H232R). The experiment in a line: Luciferase reporter assay in HEK293T-hSTING-Luciferase cells, R232 (wild type) human STING. The class given is cell-based. The conditions noted are these: 20 hr stimulation, read-out: R232 human activity (EC50 range). The method, boiled down: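 After 20 hr compound stimulation of 5×10^5 cells, secreted luciferase in the supernatant was measured by luminescence; values are fold-induction over baseline and EC50. The line is a clonal HEK293T stably carrying a STING plasmid (pUNO-1) and a luciferase reporter under five tandem ISREs fused to an ISG54 promoter.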
Sequence of hSTING(R232) (Q86WV6 whole entry H232R, the tested form may be a part): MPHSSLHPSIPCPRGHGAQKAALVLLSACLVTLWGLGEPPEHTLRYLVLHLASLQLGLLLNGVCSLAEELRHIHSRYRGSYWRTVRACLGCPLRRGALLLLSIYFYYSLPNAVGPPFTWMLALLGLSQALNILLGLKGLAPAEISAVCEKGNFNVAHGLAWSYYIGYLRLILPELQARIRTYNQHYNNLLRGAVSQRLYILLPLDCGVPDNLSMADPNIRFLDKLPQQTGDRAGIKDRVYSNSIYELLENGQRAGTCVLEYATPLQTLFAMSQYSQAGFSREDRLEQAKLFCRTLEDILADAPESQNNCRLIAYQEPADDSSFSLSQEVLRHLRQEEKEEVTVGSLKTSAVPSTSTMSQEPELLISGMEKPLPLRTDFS
Background: Reporter assays use an easily measured gene product as a stand-in for the process of interest.

In experiment [2] the target is hSTING(H232) (Homo sapiens, UniProt Q86WV6). The experiment in a line: Luciferase reporter assay in HEK293T-hSTING-Luciferase cells, H232/REF polymorph. The class given is cell-based. The conditions noted are these: H232/REF polymorph of human STING, EC50 range class. The source says: (§1) Stable Cell Line Generation • a) Stable STING expressing cells—Stable HEK293T STING-expressing cell lines were generated using plasmids purchased from Invivogen, CA, USA, that contain STING cDNA cloned into the pUNO-1 vector under hEF1-HTLV promoter and containing the Blasticidin selection cassette. The plasmids hSTING(R232), hSTING(H232), hSTING(HAQ) were directly procured from Invivogen while hSTING (AQ) and hSTING (Q) were derived from hSTING(HAQ) and hSTING (R232) plasmids respectively by using a PCR based site directed mutagenesis method. These vectors were individually transfected into HEK293T cells using Lipofectamine (Invitrogen) and transfected cells were selected under Blasticidin selection. These transfected cells were further subjected to clonal selection using the limiting dilution method to obtain clonally pure populations of HEK cells transfected with each of the above mentioned human STING variants. Only those clones were selected in which ligand independent activation of STING was minimal. • b) Stable Luciferase reporter gene expressing cells—Stable HEK293T Luciferase reporter gene expressing cell lines were generated using pCDNA4 plasmids under an IRF-inducible promoter. This promoter is comprised of five tandem interferon-stimulated response elements (ISRE) fused to an ISG54 minimal promoter. This vector was transfected into HEK293T cells using Lipofectamine (Invitrogen) and transfected cells were selected under Zeocin selection. These transfected cells were further subjected to clonal selection using the limiting dilution method to obtain clonally pure populations of HEK cells transfected the Luciferase reporter construct. Only those clones were selected in which ligand independent induction of luciferase was minimal.
Sequence of hSTING(H232) (Q86WV6 whole entry): as the sequence (Q86WV6 whole entry H232R, the tested form may be a part) above, with R232H counted along it
(§2) 5×10^5 clonally selected HEK293T-hSTING-Luciferase cells were seeded in 384-well plates in growth medium and stimulated with novel compounds. After 20 hr of stimulation supernatant were removed and secretary reporter gene activity were measured using the Quanti-Luc detection system (Invivogen) on a Spectramax i3X luminometer.
(§3) In the tables below, EC50 value ranges for exemplary compounds are given.
(§4) Single nucleotide polymorphisms of human STING have been described, which can affect the functional potency of compounds that modulate the activity of the STING protein (see Yi et. al., PLoS One, October 2013, 8(10), e77846). The 5 major polymorphisms of human STING are shown in FIG. 1, with their prevalence in human populations indicated.
(§5) The tables below show the potency of selected compounds of the invention against the most common polymorphisms.

Experiment [3] deals with IRF pathway. In words: Reporter gene expression assay in THP1-Dual cells, IRF axis (secreted Lucia luciferase). As to conditions: Homo sapiens, 20 hr stimulation, EC50 range class, read-out: THP-IRF activity. The class given is cell-based, human. The method, then: (§6) THP1-Dual™ cells (Invivogen) were derived from the human THP-1 monocyte cell line by stable integration of two inducible reporter constructs. As a result, THP1-Dual™ cells allow the simultaneous study of the NF-κB pathway, by monitoring the activity of secreted SEAP, and the IRF pathway, by assessing the activity of a secreted luciferase (Lucia). 5×10^5 THP1-Dual™ cells were seeded in 384-well plates in growth medium and stimulated with novel compounds. After 20 hr of stimulation supernatants were removed and reporter proteins were readily measured in the cell culture supernatant using QUANTI-Blue™ (Invivogen), a SEAP detection reagent, and QUANTI-Luc™ (Invivogen), a luciferase detection reagent on a Spectramax i3X luminometer.
(§7) EC50 value ranges for exemplary compounds tested in the above assay are given.

Experiment [4] has as its target hSTING(HAQ) (Homo sapiens, UniProt Q86WV6, G230A/H232R/R293Q/R71H). In words: Luciferase reporter assay in HEK293T-hSTING-Luciferase cells, HAQ polymorph. The conditions noted are these: HAQ polymorph of human STING, EC50 range class. The class given is cell-based.
From the text: as §1, §2, §3, §4, §5

The subject of experiment [5] is NF-κB pathway. In words: Reporter gene expression assay in THP1-Dual cells, NFkB axis (secreted SEAP). The class given is cell-based, human. As to conditions: Homo sapiens, 20 hr stimulation, EC50 range class, read-out: THP-NFκB activity. The method, then:
as §6, §7

Sequence of hSTING(HAQ) (Q86WV6 whole entry R71H/G230A/H232R/R293Q): as the sequence (Q86WV6 whole entry H232R, the tested form may be a part) above, with R71H, G230A, R293Q counted along it

As for `COc1cc(F)c(CN2C(=O)N(C)[C@@H](C)c3ccc(C(=O)NCc4c(F)cc(F)cc4F)cc32)c(Cl)c1` [Example 293, (S)-1-(2-chloro-6-fluoro-4-methoxybenzyl)-3,4-dimethyl-2-oxo-N-(2,4,6-trifluorobenzyl)-1,2,3,4-tetrahydroquinazoline-7-carboxamide], the EC50 in experiment [1], in experiment [2], in experiment [3], in experiment [4] and in experiment [5] was less than 1 µM throughout.

As to `CN1Cc2ccc(C(=O)NCc3c(F)cc(F)cc3F)cc2N(Cc2c(F)cccc2C#N)C1=O` [Example 39, 1-(2-cyano-6-fluorobenzyl)-3-methyl-2-oxo-N-(2,4,6-trifluorobenzyl)-1,2,3,4-tetrahydroquinazoline-7-carboxamide], the EC50 in experiment [1] was 1 to 10 µM; in experiment [2], more than 10 µM; in experiment [3] it was more than 10 µM; in experiment [4], more than 10 µM; in experiment [5] it was more than 10 µM.

`Cc1ccc(CNC(=O)c2ccc3c(c2)N(Cc2c(F)cccc2Cl)C(=O)N(C)C3C)o1` (centres unmarked) [Example 212, 1-(2-chloro-6-fluorobenzyl)-3,4-dimethyl-N-((5-methylfuran-2-yl)methyl)-2-oxo-1,2,3,4-tetrahydroquinazoline-7-carboxamide]: the EC50 in experiment [1] was less than 1 µM; in experiment [2], 1 to 10 µM; in experiment [3], more than 10 µM; in experiment [4], 1 to 10 µM; in experiment [5] it was more than 10 µM.

Consider `CC1c2ncc(C(=O)NCc3c(F)cc(F)cc3F)cc2N(Cc2c(F)cccc2Cl)C(=O)N1C` (centres unmarked) [Example 148, 1-(2-Chloro-6-fluorobenzyl)-3,4-dimethyl-2-oxo-N-(2,4,6-trifluorobenzyl)-1,2,3,4-tetrahydropyrido[3,2-d]pyrimidine-7-carboxamide], for which the EC50 in experiment [1] is less than 1 µM; in experiment [2], less than 1 µM; in experiment [3], 1 to 10 µM; in experiment [4] it was less than 1 µM; in experiment [5] it was 1 to 10 µM.

Take `C[C@H]1c2ccc(C(=O)NCc3c(F)cc(O)cc3F)cc2N(Cc2c(F)cccc2Cl)C(=O)N1C` [Example 252, (S)-1-(2-chloro-6-fluorobenzyl)-N-(2,6-difluoro-4-hydroxybenzyl)-3,4-dimethyl-2-oxo-1,2,3,4-tetrahydroquinazoline-7-carboxamide]: the EC50 in experiment [1] is less than 1 µM; in experiment [2] it was less than 1 µM; in experiment [3], 1 to 10 µM; in experiment [4], less than 1 µM; in experiment [5], 1 to 10 µM.

`Cc1cc(CN2C(=O)N(C)C(C)c3ccc(C(=O)NCc4c(F)cc(F)cc4F)cc32)c(F)cn1` (centres unmarked) [Example 237, 1-((5-fluoro-2-methylpyridin-4-yl)methyl)-3,4-dimethyl-2-oxo-N-(2,4,6-trifluorobenzyl)-1,2,3,4-tetrahydroquinazoline-7-carboxamide]: the EC50 was less than 1 µM in experiment [1]; less than 1 µM in experiment [2]; 1 to 10 µM in experiment [3]; less than 1 µM in experiment [4]; 1 to 10 µM in experiment [5].

For the compound `CC1c2ccc(C(=O)NCc3c(F)cc(F)cc3F)cc2N(Cc2c(F)cccc2N(C)C)C(=O)N1C` (centres unmarked) [Example 175, 1-(2-(dimethylamino)-6-fluorobenzyl)-3,4-dimethyl-2-oxo-N-(2,4,6-trifluorobenzyl)-1,2,3,4-tetrahydroquinazoline-7-carboxamide], the EC50 in experiment [1] is 1 to 10 µM; in experiment [2], 1 to 10 µM; in experiment [3], more than 10 µM; in experiment [4] it was 1 to 10 µM; in experiment [5], more than 10 µM.

As for `CC1c2ccc(C(=O)NCc3c(F)cc(F)cc3F)cc2N(Cc2c(F)cccc2OS(C)(=O)=O)C(=O)N1C` (centres unmarked) [Example 204, 2-((3,4-dimethyl-2-oxo-7-((2,4,6-trifluorobenzyl)carbamoyl)-3,4-dihydroquinazolin-1(2H)-yl)methyl)-3-fluorophenyl methanesulfonate], the EC50 in experiment [1] is less than 1 µM; in experiment [2], 1 to 10 µM; in experiment [3], more than 10 µM; in experiment [4], 1 to 10 µM; in experiment [5] it was more than 10 µM.

In the case of `CC1c2ccc(C(=O)NCc3c(F)cc(F)cc3F)cc2N(Cc2c(F)cccc2C(F)(F)F)C(=O)N1C` (centres unmarked) [Example 196, 1-(2-fluoro-6-(trifluoromethyl)benzyl)-3,4-dimethyl-2-oxo-N-(2,4,6-trifluorobenzyl)-1,2,3,4-tetrahydroquinazoline-7-carboxamide], the EC50 in experiment [1], in experiment [2], in experiment [3], in experiment [4] and in experiment [5] was less than 1 µM in each case.

In the case of `C[C@H]1c2ccc(C(=O)NCc3c(F)cc(F)cc3F)cc2N(Cc2cc(CO)ccc2F)C(=O)N1C` (stereo in doubt) [Example 268, 1-(2-fluoro-5-(hydroxymethyl)benzyl)-3,4-dimethyl-2-oxo-N-(2,4,6-trifluorobenzyl)-1,2,3,4-tetrahydroquinazoline-7-carboxamide], the EC50 in experiment [1] was less than 1 µM; in experiment [2], 1 to 10 µM; in experiment [3], 1 to 10 µM; in experiment [4], 1 to 10 µM; in experiment [5] it was 1 to 10 µM.

As for `CC1c2ccc(C(=O)NCc3ccc(O)cc3)cc2N(Cc2c(F)cccc2Cl)C(=O)N1C` (centres unmarked) [Example 235, 1-(2-chloro-6-fluorobenzyl)-N-(4-hydroxybenzyl)-3,4-dimethyl-2-oxo-1,2,3,4-tetrahydroquinazoline-7-carboxamide], the EC50 in experiment [1] is 1 to 10 µM; in experiment [2], 1 to 10 µM; in experiment [3], more than 10 µM; in experiment [4] it was 1 to 10 µM; in experiment [5], more than 10 µM.

Turning to `COc1cc(F)c(CNC(=O)c2ccc3c(c2)N(Cc2c(F)cccc2Cl)C(=O)N(C)[C@H]3C)c(F)c1` [Example 246, (S)-1-(2-chloro-6-fluorobenzyl)-N-(2,6-difluoro-4-methoxybenzyl)-3,4-dimethyl-2-oxo-1,2,3,4-tetrahydroquinazoline-7-carboxamide], the EC50 in experiment [1], in experiment [2], in experiment [3], in experiment [4] and in experiment [5] was less than 1 µM throughout.

For `Cc1cc(CN2C(=O)N(C)C(C)c3ccc(C(=O)NCc4c(F)cc(F)cc4F)cc32)ccn1` (centres unmarked) [Example 208, 3,4-dimethyl-1-((2-methylpyridin-4-yl)methyl)-2-oxo-N-(2,4,6-trifluorobenzyl)-1,2,3,4-tetrahydroquinazoline-7-carboxamide], the EC50 was less than 1 µM in experiment [1]; less than 1 µM in experiment [2]; 1 to 10 µM in experiment [3]; less than 1 µM in experiment [4]; 1 to 10 µM in experiment [5].

Turning to `CC1c2ccc(C(=O)NCc3cc4ccccc4o3)cc2N(Cc2c(F)cccc2Cl)C(=O)N1C` (centres unmarked) [Example 213, N-(benzofuran-2-ylmethyl)-1-(2-chloro-6-fluorobenzyl)-3,4-dimethyl-2-oxo-1,2,3,4-tetrahydroquinazoline-7-carboxamide], the EC50 in experiment [1] is less than 1 µM; in experiment [2], 1 to 10 µM; in experiment [3] it was 1 to 10 µM; in experiment [4] it was 1 to 10 µM; in experiment [5], 1 to 10 µM.

For the compound `CC1c2ccc(C(=O)NCc3c(F)cc(F)cc3F)cc2N(Cc2c(F)cccc2Br)C(=O)N1C` (centres unmarked) [Example 193, 1-(2-bromo-6-fluorobenzyl)-3,4-dimethyl-2-oxo-N-(2,4,6-trifluorobenzyl)-1,2,3,4-tetrahydroquinazoline-7-carboxamide], the EC50 in experiment [2], in experiment [3], in experiment [4] and in experiment [5] was less than 1 µM each time.
